Results reported in patent US7169568B2, “Method for screening molecules that exert a neurotrophic effect through activation of neurotrophin receptors” (New York University, priority 2000, dated 2007).

How the values were obtained:
TrkA receptors = assay: TrkA receptor tyrosine phosphorylation in PC12 (615) cells (anti-pan-Trk immunoprecipitation, PY99 anti-phosphotyrosine immunoblot); type: cell-based
Protocol: Stably transfected PC12 cells expressing high levels of TrkA (615) were treated with the indicated compounds for 2 hours. The cells were subsequently harvested in lysis buffer as described in the Materials and Methods of Example 1. Lysates were immunoprecipitated with anti-pan Trk rabbit antiserum. Immunocomplexes were analyzed by immunoblotting with anti-phosphotyrosine antibody (PY99).
In FIG. 2A, different concentrations of adenosine were administered to PC12615 cells for 2 hours or NGF (1 ng/ ml) for 10 min. Cells were also treated with CGS21680 at the indicated dose for 2 hours. In FIG. 2B, PC12 cells (615) were treated with adenosine (10 μM) for various times or with 5 ng/ml NGF for 10 min. Phosphorylated TrkA receptors were detected by immunoblot analysis using PY99 anti-phosphotyrosine antibodies. The amount of Trk receptors in each condition was verified by immunoblotting.
In FIG. 3A, PC12 cells (615) were treated with the A2A agonist CGS 21680 (10 nM) and an A1 agonist CPA (10 nM) for 2 hr. ZM 241385 (10 nM), an A2A antagonist, was incubated with the cells for 15 min prior to treatment with adenosine (10 μM) for 2 hours. In FIG. 3B, PC12 cells (615) were incubated with the indicated concentrations of PP1, a Src family kinase inhibitor (Hanke et al, 1996), for 30 min, and then treated with adenosine (10 μM) for 2 hours. Activation of TrkA was assessed by immunoprecipitation and immunoblot analysis using PY99 anti-phosphotyrosine antibody.
In FIG. 7A, different concentrations of PACAP27 were administered to PC12 (615) cells for 2 hours or NGF (5 ng/ml) for 10 min. […] Phosphorylated TrkA receptors were detected by immunoblot analysis using PY99 anti-phosphotyrosine antibodies. The level of Trk receptors for each condition was verified by immunoblotting with anti-Trk antibodies.
(§1) Immunoprotection and Immunoblotting. PC12 cells or PC12-615 cells (Hempstead et al, 1992), were maintained in Dulbecco's Modified Eagle's Medium (DMEM) containing 10% fetal bovine serum (FBS) supplemented with 100 units/ml penicillin, 100 μg/ml streptomycin, and 2 mM glutamine plus 200 μg/ml G418. Cells were placed in low serum medium (1% FBS, 0.5% horse serum) overnight prior to experiments. Cell lysates from PC12, 615 cells, or hippocampal cells were incubated in lysis buffer (1% NP40) for 4 hours to overnight at 4° C. with anti-pan-Trk polyclonal antibody, followed by incubation with protein A-Sepharose beads. Equivalent amounts of protein were analyzed for each condition. The beads' were washed five times with lysis buffer and the immune complexes were boiled in SDS-sample buffer and loaded on sodium dodecyl sulfate-polyacrylamide electrophoresis (SDS-PAGE) gels for immunoblot analysis. The immunoreactive protein bands were detected by ECL reagents based upon enhanced chemiluminescence procedure (Amersham Pharmacia).
Immunoprecipitated and Immunoblotting. PC12 (615) cells were maintained in DMEM containing 10% FBS supplemented with 100 units/ml penicillin, 100 μg/ml streptomycin, and 2 mM glutamine plus 200 μg/ml G418. Cells were placed in serum free medium overnight before experiments. Cell lysates from PC12(615) cells, or basal forebrain cells were incubated in lysis buffer (1% Nonidet P-40) for 4 hrs to overnight at 4° C. with anti-pan-Trk polyclonal antibody followed by incubation with protein A-Sepharose beads. Equivalent amounts of protein were analyzed for each condition.

TrkB receptors = assay: Trk receptor phosphorylation in primary E17 hippocampal neurons (immunoprecipitation, anti-phosphotyrosine Western blot); type: cell-based, rat; conditions: 10 nM, two hours
Protocol: FIGS. 4A and 4B show Western blots on adenosine activation of Trk receptors in hippocampal neurons. Primary cultures of E17 hippocampal neurons were prepared as described in the Materials and Methods of Example 1 and treated with (FIG. 4A) CGS 21680 (10 nM) or BDNF (1 ng/ml) for various times and (FIG. 4B) either adenosine (10 μM), CGS 21680 (10 nM), CPA (10 nM) or BDNF (10 ng/ml) for 2 hr. Activation of TrkA receptors was assessed by immunoprecipitation and Western blotting with anti-phosphotyrosine antibody.
as §1
Hippocampal Cell Cultures. Dissociated primary cultures of hippocampal neurons from embryonic day 17 (E17) rats were prepared from timed-pregnant Sprague-Dawley rats as described previously (Aibel et al, 1998). Fetuses were removed under sterile conditions and kept in PBS on ice for microscopic dissection of the hippocampus. The meninges were removed and the tissue was placed in Neurobasal media (Gibco BRL). […] Cells were counted and then plated on culture wells coated with 0.01 mg/ml poly-D-lysine overnight. […]

MAP kinase = MAP kinase activation in PC12 cells (anti-phospho MAP kinase immunoblot); type: cell-based; conditions: K252a at concentrations that block TrkA signaling (100 nM)
Protocol: as §1, with “PC12 cells (615) were treated with adenosine (10 μM) for various times in the presence or absence of […] (100 nM) or LY294002 (10 μM). The cells were subsequently harvested in lysis buffer; lysates and immunoprecipitated samples were subsequently immunoblotted with anti-phospho MAP kinase, anti-phospho Akt, and anti-phosphotyrosine. Reprobing with anti-MAP kinase and anti-pan-Trk antibodies was carried out to ensure equal protein loading. Immunoprotection” for “Immunoprotection”, “The beads' were washed five times with lysis buffer and the immune complexes were boiled in SDS-sample buffer and loaded on sodium dodecyl sulfate-polyacrylamide electrophoresis (SDS-PAGE) gels for immunoblot analysis.” left out

Akt = Akt activation in PC12 cells (anti-phospho Akt immunoblot); type: cell-based
Protocol: as §1, with “PC12 cells (615) were treated with adenosine (10 μM) for various times in the presence or absence of […] (100 nM) or LY294002 (10 μM). The cells were subsequently harvested in lysis buffer; lysates and immunoprecipitated samples were subsequently immunoblotted with anti-phospho MAP kinase, anti-phospho Akt, and anti-phosphotyrosine. Reprobing with anti-MAP kinase and anti-pan-Trk antibodies was carried out to ensure equal protein loading. To assess the activity of Akt, endogenous Akt can be immunoprecipitated from lysates with anti-Akt and the proteins assayed in Western blots with anti-phospho-Akt antibodies. Use of the anti-Akt antibody versus the anti-phospho-Akt antibody on lysates can give a comparative assessment of the relative level of the enzyme and extent of activation (Kim et al., 2001). […]” for “Immunoprotection”

[1] = test system: NGF-differentiated PC12 cells; assay: Cell death assay (LDH release), NGF-differentiated PC12 cells after NGF and serum withdrawal; type: cell-based
Protocol: (§2) FIGS. 6A and 6B show graphs on the trophic effects of adenosine in PC12 and hippocampal cells deprived of neurotrophins. In FIG. 6A, NGF-differentiated PC12 cells were prepared and then NGF and serum were withdrawn for 48 hours as described in the Materials and Methods section of Example 1. Upon NGF withdrawal, various concentrations of CGS 21680 (CGS) were added to the media. CON =No Addition. […] In FIG. 6B, hippocampal neurons were prepared and B27 was withdrawn for 48 hrs as described in the Materials and Methods section of Example 1. Upon B27 withdrawal, various concentrations of CGS 21680 (CGS) were added to the media. […] All LDH levels were quantitated and % cell death calculated as described in the Materials and Methods section of Example 1. All bars depict mean+SEM from three independent experiments.
Cell Death Assay. PC12 cells were differentiated in Dulbecco's modified Eagle's medium (DMEM), supplemented with 0.33% fetal bovine serum, 0.67% heat-inactivated horse serum, 2 mM L-glutamine and NGF (50 ng/ml) for 7 days. Serum and NGF were then removed, and adenosine agonists or growth factors added to the media. After 48 hrs, cell death was quantified by measuring lactate dehydrogenase (LDH) released from injured cells into the media using the Cytox 96 Cytotoxicity Assay Kit (Promega, Madison, Wis.). LDH values were normalized by subtracting the LDH released by cells maintained in NGF (50 ng/ml) and scaling to a full kill (=100%) reference induced by 5 min treatment with 1% Triton, an exposure that consistently killed all PC12 cells.

hippocampal neurons = assay: Cell death assay (LDH release), hippocampal neurons after B27 withdrawal; type: cell-based, rat; conditions: 100 nM, with CGS 21680 (10 nM) upon B27 withdrawal
Protocol: as §2, with “.” for “FIGS. 6A and 6B show graphs on the trophic effects of adenosine in PC12 and hippocampal cells deprived of neurotrophins.”
Hippocampal Cell Cultures. Dissociated primary cultures of hippocampal neurons from embryonic day 17 (E17) rats were prepared from timed-pregnant Sprague-Dawley rats as described previously (Aibel et al, 1998). Fetuses were removed under sterile conditions and kept in PBS on ice for microscopic dissection of the hippocampus. The meninges were removed and the tissue was placed in Neurobasal media (Gibco BRL). The tissue was briefly minced with fine forceps and then triturated with a fire polished pasteur pipet. Cells were counted and then plated on culture wells coated with 0.01 mg/ml poly-D-lysine overnight. Hippocampal cells were maintained in Neurobasal media, containing B27 supplement and L-glutamine (0.5 mM). Experiments were conducted 7–10 days after plating.
Hippocampal neurons were maintained in Neurobasal media containing B27 supplement and 0.5 mM L-glutamine for 10 days. B27 was then removed, and adenosine agonists or BDNF (100 ng/ml) was added to the media. MK-801 (1 μM) was added to all conditions, to decrease the contribution of NMDA-mediated cell death. After 48 hrs, cell death was assessed by measurement of LDH released into media.

OC[C@H]1O[C@@H](n2cnc3c(NC4CCCC4)ncnc32)[C@H](O)[C@@H]1O [CPA, N(6)-cyclopentyladenosine]
Increase in phosphorylated TrkA receptors (TrkA receptors; PC12 (615) cells, 10 nM, 2 hr): no effect
Phosphorylation of TrkB receptors (TrkB receptors): did not activate TrkB receptors

COC(=O)[C@@]1(O)C[C@H]2O[C@]1(C)n1c3ccccc3c3c4c(c5c6ccccc6n2c5c31)C(=O)NC4 [K252a]
Effect on MAP kinase activity induced by adenosine (MAP kinase): not altered
Effect on Akt activation by adenosine (Akt; pretreatment 100 nM): eliminated
Effect on survival effect of CGS 21680 ([1]; 100 nM, with CGS 21680 (10 nM) upon NGF withdrawal): eliminated the positive effects of CGS 21680
Effect on survival effects of NGF ([1]; 100 nM, with NGF (50 ng/ml)): reversed the survival effects of NGF
Effect on survival action of CGS 21680 (hippocampal neurons): K-252a sensitive

COc1cccc(-c2cc(=O)c3ccccc3o2)c1N [PD98059]
Effect on survival imparted by CGS 21680 ([1]; 25 μM, with CGS 21680 (10 nM)): not found to have any effect

Cc1ccc(-c2nn(C(C)(C)C)c3ncnc(N)c23)cc1 [PP1]
Effect on level of tyrosine phosphorylated TrkA receptors elicited by adenosine (TrkA receptors; 1 μM, 30 min, then adenosine (10 μM) for 2 hours): marked decrease
Effect on tyrosine phosphorylated TrkA receptors elicited by adenosine, concentration dependence (TrkA receptors; increasing concentrations, then adenosine (10 μM) for 2 hours): progressively stronger inhibition

Nc1nc(NCCc2ccc(O)cc2)nc2nc(-c3ccco3)nn12 [ZM 241385, 4-[2-[7-amino-2-(2-furyl)-1,2,4-triazolo[1,5-a](1,3,5)triazin-5-ylamino]ethyl]phenol]
Effect on adenosine-induced phosphorylation of TrkA receptors (TrkA receptors; 10 nM, 15 min prior to adenosine (10 μM) for 2 hours): antagonized the effects of adenosine

CN1CCc2cccc3c2[C@H]1Cc1ccc(O)c(O)c1-3 [apomorphine]
Activation of TrkA receptors (tyrosine phosphorylation) (TrkA receptors; PC12 (615) cells, ligand for 2 hours, adenosine 10 μM): not observed

Pituitary adenylate cyclase activating polypeptide [PACAP]
Concentration range of the effect upon TrkA receptor activity (TrkA receptors; PC12 (615) cells, 2 hours): low nanomolar concentration range
Time required for increase in TrkA activation (TrkA receptors; PC12 (615) cells, PACAP27 1 nM): 2 h
Akt activity (Akt; PC12 cells, PACAP treatment): stimulated
